Reference: the supplement of paper PMC11424490

Tests used:
NCI-H2122 = assay: combination cScore with sotorasib (Bliss gap around IC50) (%PoC); higher = stronger additive effect
In short: (§1)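 Scores represent the average Bliss-independence gap, expected minus measured viability, in a field surrounding both monotherapy IC50s, with the top concentrations used when no IC50 was reached. Cells (NCI-H2122, NCI-H358, SW837) were seeded at 500 or 800 per well in 384-well plates, dosed in matrices at 24 h and grown for 72 h, with SW837 grown for 144 h. Viability was measured by CellTiter-Glo, normalised to vehicle wells and fitted with four-parameter curves.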

SW837 = assay: as above
In short: as §1

| Structure (SMILES) | combination cScore with sotorasib (NCI-H2122) | combination cScore with sotorasib (SW837) |
| --- | --- | --- |
| O=C(Cc1ccccc1)Nc1nnc(CCSCCc2nnc(NC(=O)Cc3ccccc3)s2)s1 [BPTES] + C=CC(=O)N1CCN(c2nc(=O)n(-c3c(C)ccnc3C(C)C)c3nc(-c4c(O)cccc4F)c(F)cc23)[C@@H](C)C1 [sotorasib] | 4.36 | -3.09 |
| Nc1nc(Nc2ccc3c(c2)CC[C@@H](N2CCCC2)CC3)nn1-c1cc2c(nn1)-c1ccccc1CCC2 [Bemcentinib] + C=CC(=O)N1CCN(c2nc(=O)n(-c3c(C)ccnc3C(C)C)c3nc(-c4c(O)cccc4F)c(F)cc23)[C@@H](C)C1 [sotorasib] | -5 | 4.27 |
| C=C(c1ccc(C(=O)O)cc1)c1cc2c(cc1C)C(C)(C)CCC2(C)C [Bexarotene] + C=CC(=O)N1CCN(c2nc(=O)n(-c3c(C)ccnc3C(C)C)c3nc(-c4c(O)cccc4F)c(F)cc23)[C@@H](C)C1 [sotorasib] | 14.2 | -2.93 |
| CC(O)(CS(=O)(=O)c1ccc(F)cc1)C(=O)Nc1ccc(C#N)c(C(F)(F)F)c1 (centres undefined) [Bicalutamide] + C=CC(=O)N1CCN(c2nc(=O)n(-c3c(C)ccnc3C(C)C)c3nc(-c4c(O)cccc4F)c(F)cc23)[C@@H](C)C1 [sotorasib] | 3.68 | -1.56 |
| CO[C@H]1CC[C@H](n2c([C@@H]3CCCC(=O)N3c3ccc(F)c(F)c3)nc3cc(-c4c(C)noc4C)ccc32)CC1 [CCS1477] + C=CC(=O)N1CCN(c2nc(=O)n(-c3c(C)ccnc3C(C)C)c3nc(-c4c(O)cccc4F)c(F)cc23)[C@@H](C)C1 [sotorasib] | 13.8 | 11.8 |
| O=C(O)CCCCC(CCSCc1ccccc1)SCc1ccccc1 (centres undefined) [CPI-613] + C=CC(=O)N1CCN(c2nc(=O)n(-c3c(C)ccnc3C(C)C)c3nc(-c4c(O)cccc4F)c(F)cc23)[C@@H](C)C1 [sotorasib] | 19 | -5.35 |
| CCCCCOC(=O)Nc1nc(=O)n([C@@H]2O[C@H](C)[C@@H](O)[C@H]2O)cc1F [Capecitabin] + C=CC(=O)N1CCN(c2nc(=O)n(-c3c(C)ccnc3C(C)C)c3nc(-c4c(O)cccc4F)c(F)cc23)[C@@H](C)C1 [sotorasib] | 4.4 | 1.19 |
| C[C@H](CS)C(=O)N1CCC[C@H]1C(=O)O [Captopril] + C=CC(=O)N1CCN(c2nc(=O)n(-c3c(C)ccnc3C(C)C)c3nc(-c4c(O)cccc4F)c(F)cc23)[C@@H](C)C1 [sotorasib] | 1.43 | -0.1 |
| O=C(O)C1(C(=O)O)CCC1.[NH2-].[NH2-].[Pt+2] [Carboplatin] + C=CC(=O)N1CCN(c2nc(=O)n(-c3c(C)ccnc3C(C)C)c3nc(-c4c(O)cccc4F)c(F)cc23)[C@@H](C)C1 [sotorasib] | 11.6 | -4.17 |
| COc1cc2c(Oc3ccc4[nH]c(C)cc4c3F)ncnc2cc1OCCCN1CCCC1 [Cediranib] + C=CC(=O)N1CCN(c2nc(=O)n(-c3c(C)ccnc3C(C)C)c3nc(-c4c(O)cccc4F)c(F)cc23)[C@@H](C)C1 [sotorasib] | 0.01 | 1.55 |
| N.N.[Cl][Pt][Cl] [Cisplatin] + C=CC(=O)N1CCN(c2nc(=O)n(-c3c(C)ccnc3C(C)C)c3nc(-c4c(O)cccc4F)c(F)cc23)[C@@H](C)C1 [sotorasib] | 4.22 | -10.2 |
| Nc1nc(Cl)nc2c1ncn2[C@@H]1O[C@H](CO)[C@@H](O)[C@@H]1F [Clofarabine] + C=CC(=O)N1CCN(c2nc(=O)n(-c3c(C)ccnc3C(C)C)c3nc(-c4c(O)cccc4F)c(F)cc23)[C@@H](C)C1 [sotorasib] | 1 | 3.33 |
| O=C(c1ccc(F)c(F)c1Nc1ccc(I)cc1F)N1CC(O)([C@@H]2CCCCN2)C1 [Cobimetinib] + C=CC(=O)N1CCN(c2nc(=O)n(-c3c(C)ccnc3C(C)C)c3nc(-c4c(O)cccc4F)c(F)cc23)[C@@H](C)C1 [sotorasib] | 5.25 | 11.3 |
| Nc1ccn([C@@H]2O[C@H](CO)[C@@H](O)[C@@H]2O)c(=O)n1 [Cytarabin] + C=CC(=O)N1CCN(c2nc(=O)n(-c3c(C)ccnc3C(C)C)c3nc(-c4c(O)cccc4F)c(F)cc23)[C@@H](C)C1 [sotorasib] | 5.6 | 8.17 |
| CC(C)(C)c1nc(-c2cccc(NS(=O)(=O)c3c(F)cccc3F)c2F)c(-c2ccnc(N)n2)s1 [Dabrafenib] + C=CC(=O)N1CCN(c2nc(=O)n(-c3c(C)ccnc3C(C)C)c3nc(-c4c(O)cccc4F)c(F)cc23)[C@@H](C)C1 [sotorasib] | 13.3 | -2.81 |
| Nc1ncn([C@H]2C[C@H](O)[C@@H](CO)O2)c(=O)n1 [Decitabine] + C=CC(=O)N1CCN(c2nc(=O)n(-c3c(C)ccnc3C(C)C)c3nc(-c4c(O)cccc4F)c(F)cc23)[C@@H](C)C1 [sotorasib] | 1 | 0.84 |
| C[C@@H]1C[C@H]2[C@@H]3CCC4=CC(=O)C=C[C@]4(C)[C@@]3(F)[C@@H](O)C[C@]2(C)[C@@]1(O)C(=O)CO [Dexamethasone] + C=CC(=O)N1CCN(c2nc(=O)n(-c3c(C)ccnc3C(C)C)c3nc(-c4c(O)cccc4F)c(F)cc23)[C@@H](C)C1 [sotorasib] | -0.78 | -13.1 |
| CC(=O)O[C@@]12CO[C@@H]1C[C@H](O)[C@@]1(C)C(=O)[C@H](O)C3=C(C)[C@@H](OC(=O)[C@H](O)[C@@H](NC(=O)OC(C)(C)C)c4ccccc4)C[C@@](O)([C@@H](OC(=O)c4ccccc4)[C@H]21)C3(C)C [Docetaxel] + C=CC(=O)N1CCN(c2nc(=O)n(-c3c(C)ccnc3C(C)C)c3nc(-c4c(O)cccc4F)c(F)cc23)[C@@H](C)C1 [sotorasib] | 1.66 | 3.98 |
| COc1cccc2c1C(=O)c1c(O)c3c(c(O)c1C2=O)C[C@@](O)(C(=O)CO)C[C@@H]3O[C@H]1C[C@H](N)[C@H](O)[C@H](C)O1 [Doxorubicin] + C=CC(=O)N1CCN(c2nc(=O)n(-c3c(C)ccnc3C(C)C)c3nc(-c4c(O)cccc4F)c(F)cc23)[C@@H](C)C1 [sotorasib] | 11.1 | 11 |
| CN(NC(=O)CC(=O)NN(C)C(=S)c1ccccc1)C(=S)c1ccccc1 [Elesclomol] + C=CC(=O)N1CCN(c2nc(=O)n(-c3c(C)ccnc3C(C)C)c3nc(-c4c(O)cccc4F)c(F)cc23)[C@@H](C)C1 [sotorasib] | 13.6 | 13.4 |
| CNC(=O)c1ccc(N2C(=S)N(c3ccc(C#N)c(C(F)(F)F)c3)C(=O)C2(C)C)cc1F [Enzalutamide] + C=CC(=O)N1CCN(c2nc(=O)n(-c3c(C)ccnc3C(C)C)c3nc(-c4c(O)cccc4F)c(F)cc23)[C@@H](C)C1 [sotorasib] | 6.62 | 5.64 |
| COc1cc([C@@H]2c3cc4c(cc3[C@@H](O[C@@H]3O[C@@H]5CO[C@@H](C)O[C@H]5[C@H](O)[C@H]3O)[C@H]3COC(=O)[C@H]23)OCO4)cc(OC)c1O [Etoposide] + C=CC(=O)N1CCN(c2nc(=O)n(-c3c(C)ccnc3C(C)C)c3nc(-c4c(O)cccc4F)c(F)cc23)[C@@H](C)C1 [sotorasib] | 14.1 | 4.54 |
